Experimental data from publication PMC10947176, “The Antimicrobial Properties of Pd^II− and Ru^II−pyta Complexes” (Chembiochem, 2023).
Where two headings read alike, the source gives them in different places.

Experiments:
Test in all cases: MIC against extended fungal panel
[1] = tested on: Candida tropicalis ATCC 750; type: cell-based
Protocol: (§1) The extended panel contained four Candida and two Cryptococcus strains (Table 1).
(§2) Antifungal data collection: Fungi strains were cultured for 3 days on yeast extract‐peptone dextrose (YPD) agar at 30 °C. A yeast suspension of 1×10^6 to 5×10^6 CFU mL^−1 (as determined by OD530) was prepared from five colonies. The suspension was diluted in supplemented YNB and added to each well of the compound‐containing plates giving a final cell density of fungi suspension of 2.5×10^3 CFU mL^−1 and 2 % DMSO. All plates were covered and incubated at 35 °C for 36 h without shaking.
(§3) Two biological replicates x2 technical replicates were conducted on separate days (final n=4).
(§4) Growth inhibition of C. albicans, C. tropicalis and C. glabrata was determined by measuring absorbance at 630 nm (OD630), while the growth inhibition of Cryptococcus spp. and C. auris was determined by measuring the difference in absorbance between 600 and 570 nm (OD600‐570), after the addition of resazurin (0.01 % final concentration) and incubation at 35 °C for 2 h. The absorbance was measured using a Biotek Multiflo Synergy HTX plate reader.
(§5) The percentage of growth inhibition was calculated for each well, using the negative control (media only) and positive control (fungi without inhibitors) on the same plate. […] In addition, the maximal percentage of growth inhibition is reported as D Max, indicating any compounds with marginal activity.

C. albicans ATCC 90028 = type: cell-based, Candida albicans; conditions: for MIC: Candida albicans, ATCC90028
Protocol: as §1, §2, §3, §4, §5

C. auris CBS10913 = type: cell-based, Candida auris
Protocol: as §1, §2, §3, §4, §5

[2] = tested on: C. neoformans ATCC 208821; type: cell-based, Cryptococcus neoformans
Protocol: as §1, §2, §3, §4, §5

[3] = tested on: C. deuterogattii ATCC 32609; type: cell-based, Cryptococcus deuterogattii
Protocol: as §1, §2, §3, §4, §5

C. glabrata ATCC 90030 = type: cell-based, Candida glabrata
Protocol: as §1, §2, §3, §4, §5

MIC ([1]; Candida tropicalis, ATCC750, Table S3, Table 1 values in µM): 13.1 µM
MIC ([1]; Candida tropicalis, ATCC750, range of MICs, n=4): 4 µg/mL
MIC ([1]; second Table S4, free ligands): 13.1 µM
MIC (C. albicans ATCC 90028; Table S3, Table 1 values in µM, read-out: MIC, Candida albicans ATCC 90028): 0.816 to 1.63 µM
MIC (C. albicans ATCC 90028; range of MICs, n=4, read-out: MIC, C. albicans ATCC 90028): 0.25 to 0.5 µg/mL
MIC, Candida albicans ATCC 90028 (C. albicans ATCC 90028; second Table S4, free ligands): 0.816 to 1.63 µM
MIC (C. auris CBS10913; Candidozyma auris, CBS10913, Table S3, Table 1 values in µM, read-out: MIC, Candida auris CBS10913): > 104 µM
MIC (C. auris CBS10913; Candidozyma auris, CBS10913, range of MICs, n=4, read-out: MIC, C. auris CBS10913): ≥ 32 µg/mL
MIC (C. auris CBS10913; second Table S4, free ligands, read-out: MIC, Candida auris CBS10913): > 104 µM
MIC ([2]; Cryptococcus neoformans, ATCC208821, Table S3, Table 1 values in µM, read-out: MIC, Cryptococcus neoformans ATCC 208821): 26.1 µM
MIC ([2]; Cryptococcus neoformans, ATCC208821, range of MICs, n=4, read-out: MIC, C. neoformans ATCC 208821): 8 µg/mL
MIC ([2]; second Table S4, free ligands, read-out: MIC, Cryptococcus neoformans ATCC 208821): 26.1 µM
MIC ([3]; Cryptococcus deuterogattii, ATCC32609, Table S3, Table 1 values in µM, read-out: MIC, Cryptococcus deuterogattii ATCC 32609): > 104 µM
MIC ([3]; Cryptococcus deuterogattii, ATCC32609, range of MICs, n=4, read-out: MIC, C. deuterogattii ATCC 32609): > 32 µg/mL
MIC ([3]; second Table S4, free ligands, read-out: MIC, Cryptococcus deuterogattii ATCC 32609): > 104 µM
MIC (C. glabrata ATCC 90030; Nakaseomyces glabratus, ATCC90030, Table S3, Table 1 values in µM, read-out: MIC, Candida glabrata ATCC 90030): > 104 µM
MIC (C. glabrata ATCC 90030; Nakaseomyces glabratus, ATCC90030, range of MICs, n=4, read-out: MIC, C. glabrata ATCC 90030): > 32 µg/mL
MIC (C. glabrata ATCC 90030; second Table S4, free ligands, read-out: MIC, Candida glabrata ATCC 90030): > 104 µM
Compound: OC(Cn1cncn1)(Cn1cncn1)c1ccc(F)cc1F [fluconazole]
